Data taken from US9546164B2 (GENENTECH, INC., priority 2013, dated 2017).
Counter-ions that a name gives are not always drawn.

Biological target: hNav1.7 (Homo sapiens (Human), UniProt Q15858)
Assay: Tritiated sulfonamide competitive binding to membranes from cells expressing hNav1.7 and the β1 subunit;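 further: Filter-bound radioactivity counted by liquid scintillation, nonspecific binding defined with excess unlabelled ligand, IC50 fitted to percent inhibition of specific binding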
Details: read-out: Ligand Binding Assay; 100 pM [3H]compound, membranes with hNav1.7 and β1 subunit, 18 h, room temperature

Sequence of hNav1.7 (Q15858 other isoform, or with tags, fused parts or gaps): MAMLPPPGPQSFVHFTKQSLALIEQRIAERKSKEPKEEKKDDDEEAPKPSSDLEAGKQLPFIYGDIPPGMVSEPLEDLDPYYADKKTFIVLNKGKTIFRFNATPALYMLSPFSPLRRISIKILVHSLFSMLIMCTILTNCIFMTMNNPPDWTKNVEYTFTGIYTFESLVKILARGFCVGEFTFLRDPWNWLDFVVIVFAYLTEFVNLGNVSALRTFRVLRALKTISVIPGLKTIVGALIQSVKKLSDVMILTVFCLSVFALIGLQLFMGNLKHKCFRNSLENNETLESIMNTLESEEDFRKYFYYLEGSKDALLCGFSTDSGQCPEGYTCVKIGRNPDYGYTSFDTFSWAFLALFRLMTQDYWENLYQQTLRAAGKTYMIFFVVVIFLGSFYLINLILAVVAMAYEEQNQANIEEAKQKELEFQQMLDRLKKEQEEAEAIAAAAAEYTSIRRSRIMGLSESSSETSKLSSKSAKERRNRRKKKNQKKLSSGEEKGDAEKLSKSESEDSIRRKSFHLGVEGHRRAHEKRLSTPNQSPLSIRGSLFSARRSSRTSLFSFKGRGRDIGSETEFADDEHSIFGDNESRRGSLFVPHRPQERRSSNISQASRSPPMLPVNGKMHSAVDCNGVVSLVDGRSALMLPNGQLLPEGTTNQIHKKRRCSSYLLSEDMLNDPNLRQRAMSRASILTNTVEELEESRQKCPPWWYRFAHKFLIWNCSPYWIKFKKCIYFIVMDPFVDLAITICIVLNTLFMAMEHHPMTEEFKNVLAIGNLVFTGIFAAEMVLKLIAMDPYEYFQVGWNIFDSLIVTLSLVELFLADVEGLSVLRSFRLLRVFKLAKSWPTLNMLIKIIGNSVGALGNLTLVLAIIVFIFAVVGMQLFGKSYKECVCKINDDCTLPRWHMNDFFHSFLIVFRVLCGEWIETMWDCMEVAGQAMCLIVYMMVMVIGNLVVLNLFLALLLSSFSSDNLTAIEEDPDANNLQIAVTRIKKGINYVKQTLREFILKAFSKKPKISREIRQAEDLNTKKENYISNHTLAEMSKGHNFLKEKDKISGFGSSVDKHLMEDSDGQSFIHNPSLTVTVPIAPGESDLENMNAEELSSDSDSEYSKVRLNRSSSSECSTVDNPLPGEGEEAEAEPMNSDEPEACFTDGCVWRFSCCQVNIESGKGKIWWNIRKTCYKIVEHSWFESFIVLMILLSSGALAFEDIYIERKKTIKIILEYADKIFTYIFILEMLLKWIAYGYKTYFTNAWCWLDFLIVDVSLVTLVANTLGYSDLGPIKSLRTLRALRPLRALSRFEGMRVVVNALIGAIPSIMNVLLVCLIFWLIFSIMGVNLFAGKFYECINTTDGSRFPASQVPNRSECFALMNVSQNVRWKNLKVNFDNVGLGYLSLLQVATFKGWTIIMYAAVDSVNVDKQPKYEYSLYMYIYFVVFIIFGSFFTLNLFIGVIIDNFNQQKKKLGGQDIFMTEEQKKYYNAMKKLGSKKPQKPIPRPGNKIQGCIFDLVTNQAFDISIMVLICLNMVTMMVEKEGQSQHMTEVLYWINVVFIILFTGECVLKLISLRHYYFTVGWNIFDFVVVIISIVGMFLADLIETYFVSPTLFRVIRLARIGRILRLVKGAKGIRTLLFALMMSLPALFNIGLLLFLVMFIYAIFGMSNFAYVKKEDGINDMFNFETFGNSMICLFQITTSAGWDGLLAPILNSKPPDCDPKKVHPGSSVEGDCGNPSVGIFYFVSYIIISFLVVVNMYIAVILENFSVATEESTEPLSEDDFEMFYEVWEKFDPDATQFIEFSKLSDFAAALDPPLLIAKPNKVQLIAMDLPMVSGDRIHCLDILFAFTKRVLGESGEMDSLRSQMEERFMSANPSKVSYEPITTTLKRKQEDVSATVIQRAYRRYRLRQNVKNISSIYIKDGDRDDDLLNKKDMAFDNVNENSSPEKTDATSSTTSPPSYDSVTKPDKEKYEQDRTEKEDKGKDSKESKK
Sequence of hNav1.7 (Q07699 19-218 partner): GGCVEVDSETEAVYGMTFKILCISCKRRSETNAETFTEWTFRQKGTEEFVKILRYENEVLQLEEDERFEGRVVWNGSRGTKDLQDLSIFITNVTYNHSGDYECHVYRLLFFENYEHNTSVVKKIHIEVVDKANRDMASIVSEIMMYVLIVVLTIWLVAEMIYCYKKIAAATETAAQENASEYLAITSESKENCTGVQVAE

C[C@@H](c1ccc(Cl)c(C2CC2)n1)N1CCC[C@@H](Oc2cc(F)c(C(=O)NS(C)(=O)=O)cc2C2CC2)C1 [Example 310, 4-(((R)-1-((S)-1-(5-chloro-6-cyclopropylpyridin-2-yl)ethyl)piperidin-3-yl)oxy)-5-cyclopropyl-2-fluoro-N-(methylsulfonyl)benzamide]
IC50: 2.3 nM

CS(=O)(=O)NC(=O)c1cc(C2CC2)c(O[C@@H]2CCCN(Cc3cc(C(F)(F)F)cc(Cl)c3F)C2)cc1F [Example 311, (R)-4-((1-(3-chloro-2-fluoro-5-(trifluoromethyl)benzyl)piperidin-3-yl)oxy)-5-cyclopropyl-2-fluoro-N-(methylsulfonyl)benzamide]
IC50: 2.9 nM

COc1ccc(CN2CCC[C@@H](Oc3cc(F)c(C(=O)NS(=O)(=O)C4CC4)cc3C3CC3)C2)cc1F [Example 313, (R)-5-cyclopropyl-N-(cyclopropylsulfonyl)-2-fluoro-4-((1-(3-fluoro-4-methoxybenzyl)piperidin-3-yl)oxy)benzamide]
IC50: 9.1 nM

CS(=O)(=O)NC(=O)c1cc(C2CC2)c(O[C@@H]2CCCN(S(C)(=O)=O)C2)cc1F [Example 314, (R)-5-cyclopropyl-2-fluoro-N-(methylsulfonyl)-4-((1-(methylsulfonyl)piperidin-3-yl)oxy)benzamide]
IC50: > 10000 nM

C[C@H](c1ccc(F)cc1)N1CCC[C@@H](Oc2cc(F)c(C(=O)NS(C)(=O)=O)cc2C2CC2)C1 [Example 316, 5-cyclopropyl-2-fluoro-4-(((R)-1-((R)-1-(4-fluorophenyl)ethyl)piperidin-3-yl)oxy)-N-(methylsulfonyl)benzamide]
IC50: 37.2 nM

C[C@H](c1ccc(F)cc1)N1CCC[C@@H](Oc2cc(F)c(C(=O)NS(=O)(=O)C3CC3)cc2C2CC2)C1 [Example 317, 5-cyclopropyl-N-(cyclopropylsulfonyl)-2-fluoro-4-(((R)-1-((R)-1-(4-fluorophenyl)ethyl)piperidin-3-yl)oxy)benzamide]
IC50: 6 nM

CS(=O)(=O)NC(=O)c1cc(C2CC2)c(O[C@@H]2CCCN(Cc3cc(F)ccc3C(F)(F)F)C2)cc1F [Example 318, (R)-5-cyclopropyl-2-fluoro-4-((1-(5-fluoro-2-(trifluoromethyl)benzyl)piperidin-3-yl)oxy)-N-(methylsulfonyl)benzamide]
IC50: 2.6 nM

CS(=O)(=O)NC(=O)c1cc(C2CC2)c(O[C@@H]2CCCN(Cc3cccc(C(F)(F)F)c3)C2)cc1F [Example 319, (R)-5-cyclopropyl-2-fluoro-N-(methylsulfonyl)-4-((1-(3-(trifluoromethyl)benzyl)piperidin-3-yl)oxy)benzamide]
IC50: 5.4 nM

CS(=O)(=O)NC(=O)c1cc(C2CC2)c(OC2CC3(C2)CN(Cc2ccc(F)cc2Cl)C3)cc1F [Example 320, 4-((2-(2-chloro-4-fluorobenzyl)-2-azaspiro[3.3]heptan-6-yl)oxy)-5-cyclopropyl-2-fluoro-N-(methylsulfonyl)benzamide, trifluoroacetic acid salt]
IC50: 213 nM

O=C(NS(=O)(=O)N1CC(F)C1)c1cc(C2CC2)c(OC2CC3(C2)CN(Cc2ccc(F)cc2Cl)C3)cc1F [Example 321, 4-((2-(2-chloro-4-fluorobenzyl)-2-azaspiro[3.3]heptan-6-yl)oxy)-5-cyclopropyl-2-fluoro-N-((3-fluoroazetidin-1-yl)sulfonyl)benzamide]
IC50: 191 nM

C[C@@H]1CC[C@@H](Oc2cc(F)c(C(=O)NS(=O)(=O)N3CCC3)cc2C2CC2)CN1Cc1ccc(F)cc1Cl [Example 322, N-(azetidin-1-ylsulfonyl)-4-(((3R,6R)-1-(2-chloro-4-fluorobenzyl)-6-methylpiperidin-3-yl)oxy)-5-cyclopropyl-2-fluorobenzamide]
IC50: 1.9 nM

C[C@@H]1CC[C@@H](Oc2cc(F)c(C(=O)NS(=O)(=O)C3CC3)cc2C2CC2)CN1Cc1ccc(F)cc1Cl [Example 323, 4-(((3R,6R)-1-(2-chloro-4-fluorobenzyl)-6-methylpiperidin-3-yl)oxy)-5-cyclopropyl-N-(cyclopropylsulfonyl)-2-fluorobenzamide]
IC50: 1.9 nM

C[C@H]1CC[C@@H](Oc2cc(F)c(C(=O)NS(C)(=O)=O)cc2C2CC2)CN1Cc1ccc(F)cc1Cl [Example 324, 4-(((3R,6S)-1-(2-chloro-4-fluorobenzyl)-6-methylpiperidin-3-yl)oxy)-5-cyclopropyl-2-fluoro-N-(methylsulfonyl)benzamide]
IC50: 2.7 nM

C[C@H]1CC[C@@H](Oc2cc(F)c(C(=O)NS(=O)(=O)N3CCC3)cc2C2CC2)CN1Cc1ccc(F)cc1Cl [Example 325, N-(azetidin-1-ylsulfonyl)-4-(((3R,6S)-1-(2-chloro-4-fluorobenzyl)-6-methylpiperidin-3-yl)oxy)-5-cyclopropyl-2-fluorobenzamide]
IC50: 2.4 nM

C[C@H]1CC[C@@H](Oc2cc(F)c(C(=O)NS(=O)(=O)C3CC3)cc2C2CC2)CN1Cc1ccc(F)cc1Cl [Example 326, 4-(((3R,6S)-1-(2-chloro-4-fluorobenzyl)-6-methylpiperidin-3-yl)oxy)-5-cyclopropyl-N-(cyclopropylsulfonyl)-2-fluorobenzamide]
IC50: 2.9 nM

CS(=O)(=O)NC(=O)c1cc(C2CC2)c(O[C@@H]2CCCN(CC3(C(F)(F)F)CCCC3)C2)cc1F [Example 327, (R)-5-cyclopropyl-2-fluoro-N-(methylsulfonyl)-4-((1-((1-(trifluoromethyl)cyclopentyl)methyl)piperidin-3-yl)oxy)benzamide]
IC50: 2.7 nM

CS(=O)(=O)NC(=O)c1cc(C2CC2)c(O[C@@H]2CCCN(CC3(C(F)(F)F)CCC3)C2)cc1F [Example 328, (R)-5-cyclopropyl-2-fluoro-N-(methylsulfonyl)-4-((1-((1-(trifluoromethyl)cyclobutyl)methyl)piperidin-3-yl)oxy)benzamide]
IC50: 6.4 nM

CS(=O)(=O)NC(=O)c1cc(C2CC2)c(OCC2CCN(CC3(C(F)(F)F)CCCC3)CC2)cc1F [Example 329, 5-cyclopropyl-2-fluoro-N-(methylsulfonyl)-4-((1-((1-(trifluoromethyl)cyclopentyl)methyl)piperidin-4-yl)methoxy)benzamide trifluoroacetic acid salt]
IC50: 3.3 nM

C[C@H]1[C@@H](Oc2cc(F)c(C(=O)NS(C)(=O)=O)cc2C2CC2)CCCN1Cc1cc(Cl)cc(Cl)c1 [Example 330, 5-cyclopropyl-4-(((2S,3S)-1-(3,5-dichlorobenzyl)-2-methylpiperidin-3-yl)oxy)-2-fluoro-N-(methylsulfonyl)benzamide, trifluoroacetic acid salt]
IC50: 31.9 nM

C[C@H]1[C@H](Oc2cc(F)c(C(=O)NS(C)(=O)=O)cc2C2CC2)CCCN1Cc1cc(Cl)cc(Cl)c1 [Example 331, 5-cyclopropyl-4-(((2S,3R)-1-(3,5-dichlorobenzyl)-2-methylpiperidin-3-yl)oxy)-2-fluoro-N-(methylsulfonyl)benzamide, trifluoroacetic acid salt]
IC50: 32.2 nM

CS(=O)(=O)NC(=O)c1cc(C2CC2)c(OC[C@@H]2CCCN(Cc3ccc(F)cc3Cl)C2)cc1F [Example 332, (R)-4-((1-(2-chloro-4-fluorobenzyl)piperidin-3-yl)methoxy)-5-cyclopropyl-2-fluoro-N-(methylsulfonyl)benzamide]
IC50: 35.2 nM

O=C(NS(=O)(=O)N1CCC1)c1cc(C2CC2)c(OC[C@@H]2CCCN(Cc3ccc(F)cc3Cl)C2)cc1F [Example 333]
IC50: 20.7 nM

CS(=O)(=O)NC(=O)c1cc(C2CC2)c(OC[C@@H]2CCCN(Cc3cc(Cl)cc(Cl)c3)C2)cc1F [Example 334, (R)-5-cyclopropyl-4-((1-(3,5-dichlorobenzyl)piperidin-3-yl)methoxy)-2-fluoro-N-(methylsulfonyl)benzamide]
IC50: 7.1 nM

CS(=O)(=O)NC(=O)c1cc(C2CC2)c(OC[C@H]2CCCN(Cc3ccc(F)cc3Cl)C2)cc1F [Example 335, (S)-4-((1-(2-chloro-4-fluorobenzyl)piperidin-3-yl)methoxy)-5-cyclopropyl-2-fluoro-N-(methylsulfonyl)benzamide]
IC50: 14.3 nM

CS(=O)(=O)NC(=O)c1cc(C2CC2)c(OC[C@H]2CCCN(Cc3cc(Cl)cc(Cl)c3)C2)cc1F [Example 336, (S)-5-cyclopropyl-4-((1-(3,5-dichlorobenzyl)piperidin-3-yl)methoxy)-2-fluoro-N-(methylsulfonyl)benzamide]
IC50: 4.9 nM

O=C(NS(=O)(=O)N1CCC1)c1cc(C2CC2)c(OC[C@H]2CCCN(Cc3ccc(F)cc3Cl)C2)cc1F [Example 339, (S)—N-(azetidin-1-ylsulfonyl)-4-((1-(2-chloro-4-fluorobenzyl)piperidin-3-yl)methoxy)-5-cyclopropyl-2-fluorobenzamide, trifluoroacetic acid salt]
IC50: 16.5 nM

O=C(NS(=O)(=O)C1CC1)c1cc(C2CC2)c(OC[C@H]2CCCN(Cc3ccc(F)cc3Cl)C2)cc1F [Example 340, (S)-4-((1-(2-chloro-4-fluorobenzyl)piperidin-3-yl)methoxy)-5-cyclopropyl-N-(cyclopropylsulfonyl)-2-fluorobenzamide, trifluoroacetic acid salt]
IC50: 4.7 nM

C[C@@H]1CC[C@@H](COc2cc(F)c(C(=O)NS(C)(=O)=O)cc2C2CC2)CN1Cc1cc(Cl)cc(Cl)c1 [Example 341, 5-cyclopropyl-4-(((3R,6R)-1-(3,5-dichlorobenzyl)-6-methylpiperidin-3-yl)methoxy)-2-fluoro-N-(methylsulfonyl)benzamide, trifluoroacetic acid salt]
IC50: 4.4 nM

C[C@@H]1CC[C@@H](COc2cc(F)c(C(=O)NS(C)(=O)=O)cc2C2CC2)CN1[C@H](C)c1cc(Cl)cc(Cl)c1 [Example 343, 5-cyclopropyl-4-(((3R,6R)-1-((R)-1-(3,5-dichlorophenyl)ethyl)-6-methylpiperidin-3-yl)methoxy)-2-fluoro-N-(methylsulfonyl)benzamide, trifluoroacetic acid salt]
IC50: 8.4 nM

CCS(=O)(=O)NC(=O)c1cc(C2CC2)c(OC[C@@H]2CC[C@@H](C)N([C@@H](C)c3cc(Cl)cc(Cl)c3)C2)cc1F [Example 344, trifluoroacetic acid salt]
IC50: 6.9 nM
